Key:
Conditions in all cases: 72 h
HepG2 [1] = experiment: drug sensitivity score (DSS) for viability; higher = more toxic; extreme values may be limits of the assay
Vero E6 [2] = experiment: as above
Caco-2 [3] = experiment: as above
Calu-3 [4] = experiment: as above
U2OS [5] = experiment: as above
HepG2 [6] = experiment: cell viability relative to DMSO; higher = less toxic
Vero E6 [7] = experiment: as above
Caco-2 [8] = experiment: as above
Calu-3 [9] = experiment: as above
U2OS [10] = experiment: as above
HepG2 [11] = experiment: relative viability EC50 (midpoint between 100% and the lowest measured viability); higher = less toxic
Vero E6 [12] = experiment: as above
Caco-2 [13] = experiment: as above
Calu-3 [14] = experiment: as above
U2OS [15] = experiment: as above

SMILES	drug sensitivity score (HepG2 [1])	drug sensitivity score (Vero E6 [2])	drug sensitivity score (Caco-2 [3])	drug sensitivity score (Calu-3 [4])	drug sensitivity score (U2OS [5])	cell viability (HepG2 [6]; 1 nM) [%]	cell viability (HepG2 [6]; 10 nM) [%]	cell viability (HepG2 [6]; 100 nM) [%]	cell viability (HepG2 [6]; 1000 nM) [%]	cell viability (HepG2 [6]; 10000 nM) [%]	cell viability (Vero E6 [7]; 1 nM) [%]	cell viability (Vero E6 [7]; 10 nM) [%]	cell viability (Vero E6 [7]; 100 nM) [%]	cell viability (Vero E6 [7]; 1000 nM) [%]	cell viability (Vero E6 [7]; 10000 nM) [%]	cell viability (Caco-2 [8]; 1 nM) [%]	cell viability (Caco-2 [8]; 10 nM) [%]	cell viability (Caco-2 [8]; 100 nM) [%]	cell viability (Caco-2 [8]; 1000 nM) [%]	cell viability (Caco-2 [8]; 10000 nM) [%]	cell viability (Calu-3 [9]; 1 nM) [%]	cell viability (Calu-3 [9]; 10 nM) [%]	cell viability (Calu-3 [9]; 100 nM) [%]	cell viability (Calu-3 [9]; 1000 nM) [%]	cell viability (Calu-3 [9]; 10000 nM) [%]	cell viability (U2OS [10]; 1 nM) [%]	cell viability (U2OS [10]; 10 nM) [%]	cell viability (U2OS [10]; 100 nM) [%]	cell viability (U2OS [10]; 1000 nM) [%]	cell viability (U2OS [10]; 10000 nM) [%]	relative viability EC50 (HepG2 [11]) [µM]	relative viability EC50 (Vero E6 [12]) [µM]	relative viability EC50 (Caco-2 [13]) [µM]	relative viability EC50 (Calu-3 [14]) [µM]	relative viability EC50 (U2OS [15]) [µM]
CC1(C)S[C@@H]2[C@H](NC(=O)[C@H](NC(=O)N3CCN(S(C)(=O)=O)C3=O)c3ccccc3)C(=O)N2[C@H]1C(=O)O [mezlocillin]	0	0	1.1	0	0	99.6	94.2	91.1	98.6	104	99.6	107	99.5	100	100	100	102	87.8	89.4	96.3	93.8	88.9	93.1	100	94.1	96.4	97.9	92.7	103	94.8	> 10	> 10	> 10	> 10	> 10
C#C[C@]1(O)C=C[C@H]2[C@@H]3CCC4=CC(=O)CC[C@@H]4[C@H]3CC[C@@]21CC [gestodene]	0	0	0	0	0	103	102	111	105	99.7	95.9	96.8	96.3	94.3	106	90.1	89.6	98.9	100	98.7	95.9	101	101	88.5	108	96.3	99.2	94.3	96	102	> 10	> 10	> 10	> 10	> 10
CC(=O)N[C@H]1[C@@H](OC(C)C)O[C@H](COC(C)=O)[C@@H](OC(C)=O)[C@@H]1OC(C)=O [C34]	0	0	0	0	0	95.3	102	102	102	110	96.2	96.2	97.1	96.6	95.5	106	109	91.8	101	98.5	112	96.1	103	95.5	101	102	106	96.9	103	96.3	> 10	> 10	> 10	> 10	> 10
CN1CCCCC1CCN1c2ccccc2Sc2ccc([S+](C)[O-])cc21 (stereo not given) [mesoridazine]	0	0	0	0	0	108	93.2	120	106	111	93.2	96.7	91	90.1	96.5	93.4	93.9	90.5	97	110	101	108	97.7	105	120	95.3	101	96.7	97.5	101	> 10	> 10	> 10	> 10	> 10
N=C1N[C@H]2[C@H](CS[C@H]2CCCCC(=O)O)N1 [2-iminobiotin]	0	0	0	0	0	100	102	106	97.6	106	110	106	105	97.5	102	93.6	105	96.8	98.8	98	105	98.8	101	118	106	102	102	99.5	104	98.3	> 10	> 10	> 10	> 10	> 10
CC[C@@]1(O)C(=O)OCc2c1cc1n(c2=O)Cc2cc3ccccc3nc2-1 [camptothecin]	28.8	15.9	21.3	17.1	11.3	87.8	63.4	36.7	6	1.4	94.9	96.4	68.7	37.4	4	100	87.6	56.4	9.4	25.5	97.9	88.4	59.8	40.4	14.2	95.8	101	86.5	52	3.7	0.027	0.324	0.0939	0.159	0.891
CCc1nc2c(C)nc(C)cc2n1-c1ccc(CCNC(=O)NS(=O)(=O)c2ccc(C)cc2)cc1 [grapiprant]	0	0	0	0	0	103	101	104	99.2	97.6	101	97.7	97.3	95.6	96.6	101	90.4	101	102	93.8	102	89.9	103	96.1	104	98	96.3	97.7	99.3	96.8	> 10	> 10	> 10	> 10	> 10
N=C(Nc1ccccc1)c1cccs1 [LTA]	0	0	0	0	0	105	105	96.8	99.1	110	99.7	101	93.5	99.1	103	89.4	88.4	98.1	93.7	82.8	97.6	104	97.4	104	91.6	99.9	104	95.9	104	95.7	> 10	> 10	> 10	> 10	> 10
Cc1nc2c([nH]1)-c1ccccc1N(C(=O)c1ccc(NC(=O)c3ccccc3-c3ccccc3)cc1)CC2 [conivaptan]	0	0	0	0	0	97.9	97.1	101	93.6	101	97.9	100	97.3	89.4	100	97.5	94.3	91.2	102	91.7	102	106	105	94.1	96.6	101	103	96.3	104	97.6	> 10	> 10	> 10	> 10	> 10
CC(C)c1cccc2c(-c3ccccc3)cc(-c3ccc(-c4ccc(C(=O)O)cc4)[nH]3)nc12	0	1.4	1.5	0	0	94.8	87.1	100	98.8	87.6	95.6	94	86.7	83.9	91.3	89.3	102	96.5	91.7	76.1	103	96.2	99.2	117	103	97.5	101	98.9	103	96.9	> 10	> 10	> 10	> 10	> 10
O=C(/C=C/c1cccc(S(=O)(=O)Nc2ccccc2)c1)NO [belinostat]	16	18.8	15.9	13.1	17.7	98.5	98.7	87.6	22.4	0.3	93.2	92.9	83.4	8.4	0.1	87.9	96.6	89.3	21.6	0.6	90.7	89.2	86.6	41	9.9	94.6	94.9	81.9	16	0.9	0.406	0.252	0.412	0.506	0.29
O=c1c(O)c(-c2ccc(O)cc2O)oc2cc(O)cc(O)c12 [morin]	0	0	0	0	0	87.2	103	98.9	97.4	98.9	94.9	95.8	99	98.4	95.9	102	96.5	96.6	102	88.6	113	99.5	96.3	91.6	102	101	93.7	104	97.3	102	> 10	> 10	> 10	> 10	> 10
CC(C)(C)CC(C)(C)c1ccc(O)c(Cc2ccc(Cl)cc2Cl)c1 [clofoctol]	0	0	0	0	0	109	98	113	96.2	98.5	107	101	102	99.8	102	94.6	102	99.7	99.8	93.8	91.2	96.5	92.4	90.9	98.5	99.4	103	102	103	96.9	> 10	> 10	> 10	> 10	> 10
COc1ccc(CC(C)NCC(O)c2ccc(O)c(NC=O)c2)cc1 (stereo not given) [formoterol]	0	0	0	0.5	0	101	89.4	98.5	93.7	105	93.9	91.5	97.2	95.3	104	96	90.2	93.4	100	98.5	99.3	101	101	88.1	92.4	95.5	102	97.2	105	97.8	> 10	> 10	> 10	> 10	> 10
CN1CCC(=C2c3ccccc3C=Cc3ccccc32)CC1 [cyproheptadine]	0	1.8	0	0	0	88.7	90.1	116	103	86.6	98.8	99.5	97.3	86.1	79.3	106	96.4	99.7	90.3	90.3	101	97.2	91.3	106	101	97.6	97.4	92.1	100	96.9	> 10	> 10	> 10	> 10	> 10

Reference: the supplement of paper PMC13380429
